This is an account of results in publication PMC11329928, “Design, synthesis and structure-activity relationship (SAR) studies of an unusual class of non-cationic fatty amine-tripeptide conjugates as novel synthetic antimicrobial agents” (Frontiers in Pharmacology, 2024).

Series [1] can be described thus: RP-HPLC retention time used to determine hydrophobicity. The format is physicochemical. To be noted: analytical RP-HPLC, C18 Sunfire column (4.6 mm × 150 mm, 3.5 μm); A = 0.05% TFA in water, B = acetonitrile; 10% to 100% B in 20 min then isocratic 100% B 10 min; 217 and 254 nm; used as measure of hydrophobicity.
The next series relates to Streptococcus pyogenes T. The series can be described thus: Growth inhibition screening of planktonic cultures (OD550/600). The class given is cell-based. The arrangement: key: (+++) full inhibition; (++) partial inhibition; (+) growth retardation; -: (−) no effect. The settings on record: S. pyogenes T, 50 and 100 μM compound added at T1, OD550/600 followed 10 h, 37°C. In a few lines:
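Early exponential-phase cultures (OD550/600 c. a. 0.15–0.2) were treated with DICAMs at 50 and 100 μM final, diluted from DMSO stocks into medium, and incubated 10 h at 37°C. Turbidity (OD550/600) was read every 20 min against untreated controls to track growth inhibition and lysis.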

For a further series, the system named is S. pneumoniae D39. The format is cell-based, Streptococcus pneumoniae. The settings on record: for SC (stationary concentration, Δlog = 0), S. pneumoniae D39 / EC50 / Δlogmax, S. pneumoniae D39: 1 h treatment, 37°C, Hill fit; for SC (stationary concentration, Δlog = 0), S. pneumoniae D39: C + Y medium, added at T1, 10^7–10^8 CFU/mL, CFU vs untreated controls; for EC50 / Δlogmax, S. pneumoniae D39: C + Y; for EC50: read-out: K 1/2 (concentration yielding half-variation in Δlogmax), S. pneumoniae D39 (converted); for Δlogmax, S. pneumoniae D39: maximum variation in viability. An excerpt: First, the substitution of the fatty amino chain of 18 carbon atoms of the reference compound DICAM 2 by either an OMe group (methylated tripeptide DICAM 5) or an amine with 12 carbon atoms (DICAM 9) abolished the activity against all three pathogens. However, the activity remained intact when the chain of the fatty amine of prototypes DICAMs 1 and 4 was two carbon atoms shorter (DICAM 10 and DICAM 12, respectively), based on S. pneumoniae and S. pyogenes results. […] Third, Glu and Ala were tolerated as C-terminal residues of the lipotripeptides. […] In addition, deletion of the C-terminal Glu (DICAM 13) eradicated the activity against S. pneumoniae and S. aureus. However, a delay and small inhibition of S. pyogenes ^T growth was still observed. Fourth, Glu (DICAMs 19 and 20) and Orn (DICAMs 21 and 22) were tolerated as N-terminal residues, with the impact of these modifications being pathogen-dependent. […] SAR studies continued by measuring the dose dependence of DICAM’s activity at T1 with all the compounds found to be active against S. pyogenes or S. aureus in the initial screening, and all but one compound in the case of S. pneumoniae. The OD values of bacterial cultures were monitored after DICAM addition, and the decrease in the number of viable bacteria was measured relative to controls (Figures 4–6; Supplementary Figure S1). As antibacterial efficacy may decline with the bacterium dose in the inoculum ([Belley et al., 2009]; [Udekwu et al., 2009]; [Luca et al., 2013]), the assays were performed using the bacterial concentrations necessary for the fluorescence experiments in Section 2.3 (10^7–10^8 CFU/mL). At these high bacterial densities, MICs were determined as the DICAM concentration at which bacteria neither grow nor are killed (the stationary concentration (SC)), following [Udekwu et al., 2009]. By fitting the logarithmic plot of cell viability decrease vs. the DICAM dose to a Hill function (see Section 5.2.3.1) we were able to determine the maximum variation in viability (Δlogmax = ∆log f - ∆log 0, where ∆log f and ∆log 0 are the upper and lower limits of Δlog) in the assay conditions, the SC concentration (Δlog = 0), the dose required for half-variation in Δlogmax (K 1/2), and the cooperativity of the antimicrobial effect (N H).
Susceptibility to DICAMs was first tested by growth-inhibition assays at 50 and 100 μM of compound. Briefly, working solutions at 5 mM or 10 mM DICAM in pure DMSO were prepared from DICAM stocks (40 mM in pure DMSO) and diluted with fresh culture medium to 5× the desired final concentration. Aliquots (50 µL) of these solutions were added to 200 µL of bacterium cultures grown to early exponential phase (OD550/600 c. a. 0.15–0.2 in sterile 96-well plates (Cultek, Spain). Incubation continued for 10 h at 37°C and turbidity (OD550/600) values were measured every 20 min to monitor growth and lysis, using a VersaMax microplate reader (Molecular Devices; United Kingdom). Next, the activity dependence on DICAM’s dose was examined by measuring the turbidity of treated and untreated cultures as a function of time. Also, the decay of bacterial viability (CFU/mL) at selected times of treatment was assessed by colony counting on LB-agar or TSA plates after overnight incubation at 37°C. By default, 10 μL of 10-fold serially diluted samples were plated, which set the lower detection limit at 10^2 CFU/mL (10^1 CFU/mL when 100 μL of the undiluted sample was seeded).
As antibacterial efficacy may decline with the bacterium dose in the inoculum ([Belley et al., 2009]; [Udekwu et al., 2009]; [Luca et al., 2013]), activity assays were performed using the bacterial concentrations required for the fluorescence experiments in Section 2.3 (10^7–10^8 CFU/mL). At such bacterial densities, MICs were determined as the DICAM concentration at which bacteria neither grow nor are killed under assay conditions (the stationary concentration (SC)), as indicated in Section 2.2. […]

As for `CCCCCCCCCCCCCCCCCCNC(=O)[C@H](CCC(=O)O)NC(=O)[C@H]1CCCN1C(=O)[C@H](C)NC(C)=O` [DICAM 24, Ac-Ala- Pro -Glu-NH-C18H37], in series [1], the Retention time is reported as 21.23 min. In addition, the “Growth halt or lysis (50/100 μM), Spy T” value in the series on Streptococcus pyogenes T is listed as “+++”. In the series on S. pneumoniae D39, the “SC (stationary concentration, Δlog = 0), S. pneumoniae D39” value came out at 4 ± 0.8 µM; the EC50 was 6.1 ± 0.6 µM; the “Δlogmax, S. pneumoniae D39” value stood at 2.2 ± 0.1 logarithmic units.

As for “Ala - Pro -Glu-NH-C18H37 · HCl [DICAM 23]”, the Retention time in series [1] was found to be 19.31 min. Further, the “Growth halt or lysis (50/100 μM), Spy T” value with Streptococcus pyogenes T was “+++”. Also, in the series with S. pneumoniae D39, the “SC (stationary concentration, Δlog = 0), S. pneumoniae D39” value stood at 2.9 ± 0.8 µM; the EC50 is 8.6 ± 0.3 µM; the “Δlogmax, S. pneumoniae D39” value was 5.4 ± 0.2 logarithmic units. For the same compound, the “Reduction of the number of viable cells at saturating doses” value with S. pneumoniae D39 (S. pneumoniae D39, within 60 min) is at least 4.6 log-units. Further, in the series with S. pneumoniae D39 (after 1-h incubation at 3 × SC values), the “Reduction of the number of viable cells at 3 × SC, S. pneumoniae” value is given as 99.2%–99.8.
